Laboratory results from paper PMC8113725, “Structure–activity relationship of ipglycermide binding to phosphoglycerate mutases” (The Journal of Biological Chemistry, 2021).
Like-named read-outs stand apart in the source and are kept apart here. Bridge positions count the residues as written; N and C are the ends. Square brackets hold non-standard residues; d marks the D form. Ends that are not written are not given here. Peptide text beside a SMILES is read from it. * marks the point of attachment. NHOH = ON*

Columns and labels:
[1] = target: T1, E. coli iPGM (Escherichia coli, UniProt P37689); assay: biochemical
[2] = target: T2, C. elegans iPGM (Caenorhabditis elegans, UniProt G5EFZ1); assay: SPR binding kinetics and saturation binding, biotinylated iPGM on Biotin CAPture chip (Biacore S200)
[3] = target: T1, E. coli iPGM; assay: as above; settings: for koff / kon: LoQ = limit of quantitation
[4] = target: T2, C. elegans iPGM; settings: read-out: KD, prior estimate; zone boundary analysis from a cross-titration of C. elegans iPGM enzyme versus Ce-2; cited from earlier work
[5] = target: D. immitis iPGM (Dirofilaria immitis, UniProt F4ZE01); assay: biochemical; settings: Di iPGM Ave IC50 (M)
[6] = target: T3, B. malayi iPGM (Brugia malayi, UniProt Q4VWF8); assay: biochemical; type: binding
T3 sequence (Q4VWF8 1-515): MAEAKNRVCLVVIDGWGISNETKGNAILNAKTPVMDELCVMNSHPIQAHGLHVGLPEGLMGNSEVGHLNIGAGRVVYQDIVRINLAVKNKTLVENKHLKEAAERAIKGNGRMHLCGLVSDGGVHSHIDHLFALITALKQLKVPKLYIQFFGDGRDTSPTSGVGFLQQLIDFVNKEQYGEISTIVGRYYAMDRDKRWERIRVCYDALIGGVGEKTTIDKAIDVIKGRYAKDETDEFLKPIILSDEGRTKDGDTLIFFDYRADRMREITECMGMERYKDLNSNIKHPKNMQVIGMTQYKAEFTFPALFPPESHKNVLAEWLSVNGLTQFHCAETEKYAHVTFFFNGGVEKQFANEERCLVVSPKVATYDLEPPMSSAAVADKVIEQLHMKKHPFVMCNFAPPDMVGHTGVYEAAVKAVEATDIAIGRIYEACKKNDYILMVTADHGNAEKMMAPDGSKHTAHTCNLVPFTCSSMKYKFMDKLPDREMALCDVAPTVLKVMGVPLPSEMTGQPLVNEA

[7] = target: T2, C. elegans iPGM; assay: PGM enzyme assay (enolase–pyruvate kinase coupled, Kinase-Glo Plus end point) and IC50 determination; type: biochemical; settings: for IC50: iPGM ortholog not given
[8] = target: T4, Ce-1 NHOH (synthetic construct, thioether N-8; SMILES …); assay: SPR
T4 chain: {CH2CO}-[dY]DYPGDHCYLYGT-{NHOH}

[9] = target: T5, Ce-2 Thr13Ser (synthetic construct, thioether N-8); assay: SPR
T5 chain: {CH2CO}-[dY]DYPGDYCYLYGSC

[10] = target: T6, Ce-2 (synthetic construct, thioether N-8); assay: SPR
T6 chain: {CH2CO}-[dY]DYPGDYCYLYGTC

[11] = SPR, 25 °C, global fit to 1:1 binding model
[12] = SPR, Req hyperbolic fit where steady state reached, else koff/kon
[13] = Supplementary Table 5, SPR, E.c. iPGM

**Q.** With `CC(C)C[C@H](NC(=O)[C@H](Cc1ccc(O)cc1)NC(=O)[C@@H]1CSCC(=O)N[C@H](Cc2ccc(O)cc2)C(=O)N[C@@H](CC(=O)O)C(=O)N[C@@H](Cc2ccc(O)cc2)C(=O)N2CCC[C@H]2C(=O)NCC(=O)N[C@@H](CC(=O)O)C(=O)N[C@@H](Cc2ccc(O)cc2)C(=O)N1)C(=O)N[C@@H](Cc1ccc(O)cc1)C(=O)NCC(=O)N[C@H](C(=O)N[C@@H](CS)C(N)=O)[C@@H](C)O` [Ce-2] as the molecule, how does the IC50 ([1]; IC50) read?
**A.** > 0.1 µM

**Q.** And the IC50 ([1]; […])?
**A.** 0.129 µM

**Q.** What about the Kd [2] of the same molecule?
**A.** 0.0382 nM

**Q.** And the koff [2]?
**A.** 3.23e-05 s⁻¹

**Q.** And the kon [2]?
**A.** 1.11e+06 M⁻¹ s⁻¹

**Q.** What about the koff [2, 11] of the same molecule?
**A.** 3.2e-05 s⁻¹

**Q.** And the kon [2, 11]?
**A.** 1.1e+06 M⁻¹ s⁻¹

**Q.** What about the koff ([3]; SPR, 25 °C, global fit to 1:1 binding model, read-out: koff) of the same molecule?
**A.** 0.0048 s⁻¹

**Q.** And the kon ([3]; SPR, 25 °C, global fit to 1:1 binding model, read-out: kon)?
**A.** 100000 M⁻¹ s⁻¹

**Q.** What about the Kd [3, 12] of the same molecule?
**A.** ~0.07 µM

**Q.** What about the koff [3, 13] of the same molecule?
**A.** 0.00484 s⁻¹

**Q.** And the kon [3, 13]?
**A.** 102000 M⁻¹ s⁻¹

**Q.** And the Kd ([3]; Supplementary Table 5, SPR, E.c. iPGM, unit inferred)?
**A.** 0.0692 µM

**Q.** What about the Kd [4] of the same molecule?
**A.** 0.07 nM

**Q.** And the IC50 [5]?
**A.** 8.27e-10 M

**Q.** What about the koff [6] of the same molecule?
**A.** 0.000224 s⁻¹

**Q.** And the kon [6]?
**A.** 482000 M⁻¹ s⁻¹

**Q.** And the Kd [6, 12]?
**A.** 0.0005 µM

**Q.** And the Kd ([6]; Supplementary Table 5, SPR, B.m. iPGM, unit inferred)?
**A.** 0.00047 µM

**Q.** And the koff [6, 11]?
**A.** 0.00022 s⁻¹

**Q.** What about the kon [6, 11] of the same molecule?
**A.** 480000 M⁻¹ s⁻¹

**Q.** For `CC(=O)N[C@@H](Cc1ccc(O)cc1)C(=O)NCC(=O)N[C@H](C(=O)N[C@@H](CS)C(N)=O)[C@@H](C)O` [Ac-YGTCNH2, Ac-YGTC-CONH2] (Ac-YGTC-NH2), which IC50 ([7]; IC50, metal-ion–coordinating sequence alone) is on record?
**A.** > 500 µM

**Q.** And the IC50 [5]?
**A.** > 0.001 M

**Q.** Which results are given for `CC[C@H](C)[C@H](NC(=O)[C@H](Cc1ccc(O)cc1)NC(=O)[C@@H]1CSCC(=O)N[C@H](Cc2ccc(O)cc2)C(=O)N[C@@H](CC(=O)O)C(=O)N[C@@H](Cc2ccc(O)cc2)C(=O)N2CCC[C@H]2C(=O)NCC(=O)N[C@@H](CC(=O)O)C(=O)N[C@@H](Cc2ccc(O)cc2)C(=O)N1)C(=O)N[C@@H](Cc1ccc(O)cc1)C(N)=O` [Ce-2d L10I]?
**A.** IC50 ([7]; IC50, text, C. elegans by contrast with nematode orthologs): 0.025 µM; IC50 [5]: 5.03e-07 M

**Q.** With `CC(C)C[C@@H]1NC(=O)[C@H](Cc2ccc(O)cc2)NC(=O)[C@H](CS)NC(=O)[C@H](Cc2ccc(O)cc2)NC(=O)[C@H](CC(=O)O)NC(=O)CNC(=O)[C@@H]2CCCN2C(=O)[C@H](Cc2ccc(O)cc2)NC(=O)[C@H](CC(=O)O)NC(=O)[C@@H](Cc2ccc(O)cc2)NC(=O)CSC[C@@H](C(N)=O)NC(=O)[C@H]([C@@H](C)O)NC(=O)CNC(=O)[C@H](Cc2ccc(O)cc2)NC1=O` [Ce-2 [Y1-->C14]] as the molecule, how does the inhibitory activity [7] read?
**A.** inactive

**Q.** What about the IC50 [5] of the same molecule?
**A.** 6.52e-06 M

B1: iPGM (protein)
chain: MAEAKNRVCLVVIDGWGISNETKGNAILNAKTPVMDELCVMNSHPIQAHGLHVGLPEGLMGNSEVGHLNIGAGRVVYQDIVRINLAVKNKTLVENKHLKEAAERAIKGNGRMHLCGLVSDGGVHSHIDHLFALITALKQLKVPKLYIQFFGDGRDTSPTSGVGFLQQLIDFVNKEQYGEISTIVGRYYAMDRDKRWERIRVCYDALIGGVGEKTTIDKAIDVIKGRYAKDETDEFLKPIILSDEGRTKDGDTLIFFDYRADRMREITECMGMERYKDLNSNIKHPKNMQVIGMTQYKAEFTFPALFPPESHKNVLAEWLSVNGLTQFHCAETEKYAHVTFFFNGGVEKQFANEERCLVVSPKVATYDLEPPMSSAAVADKVIEQLHMKKHPFVMCNFAPPDMVGHTGVYEAAVKAVEATDIAIGRIYEACKKNDYILMVTADHGNAEKMMAPDGSKHTAHTCNLVPFTCSSMKYKFMDKLPDREMALCDVAPTVLKVMGVPLPSEMTGQPLVNEA
**Q.** Which Kd [8] does the source give for B1 here?
**A.** 0.012 µM

**Q.** What about the Kd [9] of the same molecule?
**A.** 0.085 nM

**Q.** And the Kd [10]?
**A.** 0.0005 µM
